Common to all, as to type: in vivo, human
Series [1] concerns patients with neuropathic pain. The experiment in a line: Case reports: relief of neuropathic pain by EGFR inhibitors (0-10 NRS / Brief Pain Inventory). To be noted: for Phantom-limb pain response: Case 5, panitumumab then erlotinib; for NP relief (summary of the cases): conditions where proximal and/or distal parts of peripheral nerves were affected. How it is done: The term “in vivo” refers to the natural environment (e.g., an animal or a cell) and to processes or reaction that occur within a natural environment. […] Pain interference is assessed using the Brief Pain Inventory (BPI). BPI is used to evaluate pain interference with the following: (a) general activity, (b) mood, (c) walking ability, (d) normal work, (e) relations with other people, (f) sleep, and (g) enjoyment of life. Total score for pain interference is calculated as: (Mean score of non-missing questions)×(7/number of non-missing questions). If four or more questions are missing, the pain interference total score is set to missing.
In some cases, the patients were asked to complete a BPI short form daily, just before and during the EGFR inhibition, in order to document their neuropathic pain and thus, help us to judge their responses and guide treatment decisions.

Series [2] can be described thus: Case reports: concomitant analgesic / opioid requirement during EGFR inhibition.
A short description of series [3]: Case reports: side effects of EGFR inhibitors.
Series [4] in a line: Case reports: performance status, function, quality of life and accompanying symptoms. To be noted: Case 7, CIPN; after six to eight weeks of treatment.
Setting [5] is: Case 2, CRPS1, after gefitinib discontinuation, 10/10 before treatment.
Where [6] appears, read: Case 2, yrs, complex regional pain syndrome type 1 of the right hand, sequence cetuximab, panitumumab, cetuximab, gefitinib, erlotinib.
Where [7] appears, read: Case 14, panitumumab then erlotinib, four weeks.

Entries after “also recorded” stand apart in the source; their conditions may differ. A value given as a limit tells only on which side of the number the result lay.

The record followed here is patent publication US11396548B2, “EGFR targeted therapy of neurological disorders and pain” (Sykehuset Sørlandet HF, priority 2012, dated 2022).

On to panitumumab, for which the “Pain score 48 hours after panitumumab infusion” value in series [1] (setting [5]) is listed as 3 /10. For the same molecule, the “Pain score the next day after panitumumab infusion” value in series [1] (setting [5]) is listed as 5 /10. The Neuropathic pain response entry in series [1] (setting [6]) is listed as “recurrence of severe pain on the very same evening as the panitumumab infusion; also recorded: completely gone again on the third day; also recorded: dramatic increase in pain just hours after infusion; also recorded: dramatic pain relief within hours”; in series [1] (Case 11, two days after panitumumab infusion and on continued treatment every 2 weeks), “completely gone; also recorded: NP has not recurred”. Besides, the Phantom-limb pain response entry in series [1] is listed as “again effectively alleviated within one day after the second infusion”. Besides, the “Time to complete relief after first infusion” value in series [1] (Case 6, panitumumab) was at most 24 h. Besides, the Pain reduction in series [1] (Case 7, CIPN, after four to six weeks (2-3 doses) of panitumumab) is reported as 60-70%. For the same molecule, the Maximum pain intensity entry in series [1] (Case 7, CIPN, two weeks after first panitumumab, only lasted a few seconds) was “ten out of ten”. Besides, in series [1] (Case 7, CIPN, two weeks after first panitumumab, several minutes before), the “Duration of painful bursts” value is recorded as “five to ten seconds”. In addition, the “Herpes Zoster related symptoms” value in series [1] (Case 8, herpetic neuralgia Th5, Day 20, panitumumab infusion, bursts 10/10 on days 16-20) is “pain had completely resolved”. Further, in series [1] (Case 8, Day 34), the “Herpes Zoster related symptoms: intensity, frequency and duration of painful bursts” value is reported as “improve (since day 21)”. Also, the “Time to complete pain relief, into the infusion” value in series [1] (Case 8, panitumumab infusion on day 20) is given as “approximately 10 minutes”. For the same molecule, the “Pain level at recurrence” value in series [1] (Case 10, 15 days after the initial panitumumab infusion) was 9 out of 10. Also, the “Pain intensity during the following weeks” value in series [1] (Case 10, after first panitumumab 6 mg/kg) is reported as 2-3 NRS. Besides, the Reported pain reduction in series [1] (Case 12, after two panitumumab infusions) is 75%. Also, the “Duration of analgesic effect” value in series [1] (Case 12, first panitumumab infusion) was “lasted only one week”. In addition, in series [1] (Case 12, second panitumumab infusion after two weeks, pregabalin reduced from 375 mg to 225 mg), the “Worst pain level after second infusion” value is “around three”. Besides, the “Peak NP in occasional episodes” value in series [1] (Case 12, three months after initial EGFR-I administration) turned out to be 3. The “Average NP” value in series [1] (Case 12, three months after initial EGFR-I administration, treatment on hold) turned out to be 2. In addition, the “Reduction in pain intensity” value in series [1] (Case 13, yrs, CIPN (oxaliplatin), two days after 6 mg/kg panitumumab i.v.) is on record as 20-30%. Also, the Distribution of pain entry in series [1] (Case 13, two days after panitumumab, pain only located distally in feet) was “the pain in the legs had completely disappeared”. In series [1] (Case 13, two weeks after the panitumumab infusion), the “Pain further reduced by, of baseline levels” value is on record as 30-40%. Besides, the “Worst pain in the first two weeks after the infusion” value in series [1] (Case 14, panitumumab, amitryptiline reduced from 40 mg to 20 mg, exacerbations 10 out of 10 before) was 6-7 out of 10. Also, in series [1] (case 3), the “Time to pain recurrence after panitumumab” value is “roughly 20 days”. Besides, the “NP relief (summary of the cases)” value in series [1] is “led to complete NP relief”. Also, the Analgesic requirement entry in series [2] (Case 5) is on record as “required less breakthrough pain medication”; in series [2] (Case 6, during panitumumab treatment), “no longer required analgesics”. Moreover, in series [2] (Case 11, two days after panitumumab, 100 mg depot morphine per 24 hours before), the Opiate requirement entry was “no longer required opiates”. The Side effects result in series [3] (Case 11, panitumumab every 2 weeks) is reported as “transient acne; also recorded: has otherwise not experienced any side effects”; in series [3] (setting [7]) it was “has not experienced any side effects to date”. Also, in series [3] (Case 12, panitumumab), the Side effect result is “skin rash grade 2-3”. The Sensibility entry in series [4] is on record as “beginning to regain sensibility in their fingers”.
As for `C#Cc1cccc(Nc2ncnc3cc(OCCOC)c(OCCOC)cc23)c1` [erlotinib], the Neuropathic pain response result in series [1] (setting [6]) is listed as “pain-free upon conversion from panitumumab to erlotinib; also recorded: has not recurred since; also recorded: continues to be completely resolved”. In series [1], the Phantom-limb pain response entry is on record as “reported phantom-limb pain improvement” and the “NP relief (summary of the cases)” value was “led to complete NP relief”. The “Least degree of pain” value in series [1] (Case 9, 10 days on erlotinib 150 mg tablets) was 0 /10. In series [1] (Case 9, oral erlotinib 150 mg), the Onset of effect result is recorded as “four to five days”. In series [1] (Case 13, 150 mg oral erlotinib after panitumumab, over the following three weeks), the Pain relief result is given as “up to 70%”. In series [1] (Case 13, four weeks after starting erlotinib, week with slightly worsening pain, uses omeprazole), this molecule had a Pain reduction of 60%. For the same molecule, the Average pain in series [1] (Case 14, four weeks after start of EGFR-I (panitumumab), one week after starting erlotinib, around 5 before) was 4 out of 10. Besides, in series [1] (Case 14, four weeks after start of EGFR-I, one week after starting erlotinib, 10 before), the Maximum pain is recorded as 6 0-10 pain scale. For the same molecule, in series [1] (previously EGFR-I naive patient (case 9)), the “Neuropathic pain response (BPI scores, FIG. 7 lower panel)” value is “responded to upfront treatment”. In addition, in series [2] (Case 5), the Analgesic requirement entry is “opioid requirement diminished”. In addition, the Side effect entry in series [3] (Case 9, erlotinib) is “dry skin grade II which was transient”. In addition, in series [3] (setting [7]), the Side effects entry was “has not experienced any side effects to date”.
